Patent publication US12410124B2 (priority 2019, dated 2025)
Read-outs that look alike come from different tables or passages of the source.

How the values were obtained:
primary glial cells = test: Inhibition of the NO release of primary glial cells induced by LPS; type: cell-based, rat; details: Rattus norvegicus, Glial cell, read-out: NO inhibition (%)
From the text: Lipopolysaccharide (LPS) is a main component of the cell wall of Gram-negative bacteria. It is a potent inflammatory factor that can directly activate gliocytes, and the activated gliocytes secrete a large amount of inflammation mediators such as tumor necrosis factor, interleukin, and nitric oxide, thus causing inflammatory reactions and oxidative stress reactions and eventually leading to neuronal denaturation and death. In recent years, the targeted injection of LPS into rat substantia nigra or striatum to induce neuroinflammation can successfully establish PD models, which can simulate most of the clinical manifestations and pathological features of PD, and are used for the study on the neuroinflammation mechanism associated with PD. LPS-induced primary glial cell PD inflammation model is suitable for the preliminary anti-neuroinflammation screening for neuroprotective agents. LPS is used to directly activate primary glial cells to simulate the pathogenesis mechanism of neuroinflammation, and the inhibitory activity of the target compounds on the inflammatory response of primary glial cells can be investigated.
The materials were taken from the brain tissue of fetal rat, for primary glial cell culture. At 7 to 10 days of the culture, LPS was added for the activation of nitric oxide (NO) release in glial cells. When a target compound was added, the reduction value for NO content in the cell culture medium was measured, to evaluate the anti-neuroinflammation activity of the compound. The experiment included blank control group, LPS model group, positive control group (caffeic acid phenethyl ester, CAPE), prototype control group (styryl sulfone compounds 3B, 3C, 3D, and 3G, the structures of which compounds are shown as above), and target compound group.

[1] = molecular target: acetylcholinesterase (AchE) (Homo sapiens, UniProt P22303); test: biochemical
Description: The modified Ellman method was used to determine the inhibitory activity on acetylcholinesterase. The principle lies in that acetylthiocholine iodide is decomposed under the action of acetylcholinesterase (AchE) to generate thiocholine. The thiocholine is quickly reacted with DTNB as the colour-developing agent to generate a yellow substance with light absorption at 405 nm. To a 96-well microplate, 50 μl of enzyme reaction buffer, 125 μl of DTNB (3 mM), 25 μl of test sample or positive control drug, and 25 μl of AchE (0.2 U/ml) were successively added. After incubation at room temperature for 5 min, 25 μl of ATCI (15 mM) was added. After incubation at room temperature for 8 min, the absorbance value was determined at 405 nm with a microplate reader. A blank control group without enzyme (25 μl PBS instead of the sample to be tested) was also established.

[2] = tested on: fetal rat midbrain neurons; test: Survival rate of primary midbrain neurons induced by MPP+ (CCK-8); type: cell-based; details: Rattus norvegicus, Neuron, read-out: Survival rate (%)
From the text: The main pathological feature of Parkinson's disease (PD) lies in the degeneration and loss of dopaminergic neuron in the substantia nigra-striatum of the midbrain. 1-Methyl-4-phenylpyridinium (MPP+) has a high affinity to dopamine carriers and a selective toxicity on dopaminergic neurons. Thus, MPP+ is one of the most ideal classic neurotoxins for establishing PD cell models. The primary cell culture of fetal rat midbrain is often used to establish PD cell models in recent years. Although it is more cumbersome and has higher technical requirements than cell line culture, it is closer to the pathological characteristics of PD. Thus, a PD cell model is established using neurons from the primary cell culture of fetal rat midbrain under MPP+ induction, to evaluate the protective effect of target compounds on the model neurons.
The midbrain was separated from a fetal rat of a 15-day-pregnant SD rat and cut into pieces, then subjected to trypsin digestion, pipetting, screen filtration, and resuspension steps, and inoculated in a 24-well cell culture plate pre-coated with poly-D-lysine. 12 hours after culture, cytarabine was added to inhibit the growth of glial cells. On the 5th day of neuron growth, the toxin MPP+ can be added to make a PD cell model. When detecting the activity of a target compound, the target compound was pre-incubated with midbrain neurons for 3 h, then MPP+ was added, and after 48 h co-incubation the neuronal viability was detected by CCK-8 method and the neuronal survival rate was calculated to evaluate the inhibitory activity of the target compound on the midbrain neuronal PD damage. The experiment included blank control group, MPP+ model group, positive control group (caffeic acid phenethyl ester, CAPE), prototype control group (styryl sulfone compounds 3B, 3C, 3D, and 3G), and target compound group (prepared according to Examples 1-22 in the invention).

substantia nigra CD11b = test: Number of substantia nigra microglial cells with CD11b positive expression in MPTP Parkinson's disease model mouse (immunohistochemistry); type: in vivo; details: substantia nigra, MPTP Parkinson's disease model mouse, immunohistochemistry
Description: (§1) Neurotoxins can be used to establish PD animal models. Currently, 1-methyl-4-phenyl-1,2,3,6-tetrahydropyridine (MPTP) is the sole synthetic toxin which is recognized to induce PD symptoms in human and non-human primates and in mice. Using MPTP subacute modeling method, C57BL/6J male mice were intraperitoneally injected with MPTP 30 mg/kg, once a day for 5 consecutive days. The experiment animals were divided into blank control group, MPTP model group, and compound treatment group. For the […] compound treatment group, the compound was administrated by gavage for 21 consecutive days after the completion of modeling; for the MPTP model group, the normal saline was administrated by gavage for 21 consecutive days after the completion of modeling; and for the blank control group, the normal saline was first intraperitoneally injected for 5 days, and then administrated by gavage for 21 days.
(§2) Neuron-glial cell network homeostasis disorder is an important factor for the selective and progressive death of substantia nigra dopaminergic neurons in PD. In the neurotoxic effect of MPTP, the excessive activations of microglial cells and astrocytes produce a variety of inflammatory cytokines and reactive oxygen species (ROS). These inflammatory factors and ROS amplify their respective toxicities and mediate malignant feedback loop, causing a cascade inflammation response and aggravating the pathological process of PD. CD11b and GFAP are the marker proteins for activations of microglial cells and astrocytes, respectively. Therefore, the effect of the target compounds on the activations of the microglial cells and astrocytes in the substantia nigra, hippocampus, and midbrain areas of MPTP-induced PD mice can be investigated, to explore the mechanism of the anti-PD effect of the target compounds by inhibiting the neuroinflammation.
(§3) Half of experiment mice in each group were taken to separate the midbrain after perfusion and fixation. The tissue was trimmed, and the substantia nigra area was taken to prepare paraffin sections. The CD11b immunohistochemical staining was performed for the statistics of the change in the number of microglial cells with CD11b positive expression. The experiment included blank control group, MPTP model group, positive control group (caffeic acid phenethyl ester, CAPE), prototype control group (styryl sulfone compounds 3B, 3C, 3D, and 3G, whose structures are shown as above), and target compound group.

hippocampus CD11b = test: Number of hippocampus microglial cells with CD11b positive expression in MPTP Parkinson's disease model mouse (immunohistochemistry); type: in vivo; details: hippocampus, MPTP Parkinson's disease model mouse, immunohistochemistry
Description: as §1, §2
as §3, with “hippocampus” for “substantia nigra”

[3] = acetylcholinesterase, modified Ellman method, read-out: IC50
[4] = 5 μM, 3 h pre-incubation, 48 h with MPP+
[5] = 10 μM, 3 h pre-incubation, 48 h with MPP+
[6] = 20 μM, 3 h pre-incubation, 48 h with MPP+

Sequence of acetylcholinesterase (AchE) (P22303 32-614, species assumed): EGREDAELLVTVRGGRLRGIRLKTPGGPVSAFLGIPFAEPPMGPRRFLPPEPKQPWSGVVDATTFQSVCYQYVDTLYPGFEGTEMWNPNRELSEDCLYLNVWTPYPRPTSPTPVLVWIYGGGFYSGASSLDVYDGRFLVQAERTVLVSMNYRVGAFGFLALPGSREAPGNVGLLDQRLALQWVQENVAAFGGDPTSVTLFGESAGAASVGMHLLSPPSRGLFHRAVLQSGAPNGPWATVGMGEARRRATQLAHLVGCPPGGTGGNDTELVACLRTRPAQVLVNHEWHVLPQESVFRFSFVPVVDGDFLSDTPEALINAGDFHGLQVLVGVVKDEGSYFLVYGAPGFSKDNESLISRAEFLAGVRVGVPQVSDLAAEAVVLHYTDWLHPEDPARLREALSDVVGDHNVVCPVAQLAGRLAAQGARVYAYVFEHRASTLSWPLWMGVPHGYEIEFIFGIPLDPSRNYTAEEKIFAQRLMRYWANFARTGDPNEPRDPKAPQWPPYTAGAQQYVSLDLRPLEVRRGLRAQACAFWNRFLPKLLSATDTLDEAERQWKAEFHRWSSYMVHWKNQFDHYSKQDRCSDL

| Structure (SMILES) | inhibition at 2 µM (primary glial cells; 2 μM) [%] | inhibition at 5 µM (primary glial cells; 5 μM) [%] | inhibition at 10 µM (primary glial cells; 10 μM) [%] | IC50 [1, 3] [µM] | viability at 5 µM [2, 4] [%] | viability at 10 µM [2, 5] [%] | viability at 20 µM [2, 6] [%] | Positive cell number (microglial cells with CD11b positive expression) (substantia nigra CD11b) | Positive cell number (microglial cells with CD11b positive expression) (hippocampus CD11b) | inhibition at 20 µM (primary glial cells; 20 μM) [%] | inhibition at 2 µM (primary glial cells) [%] | inhibition at 5 µM (primary glial cells) [%] | inhibition at 10 µM (primary glial cells) [%] | IC50 [1] [µM] | viability at 5 µM ([2]; 48 h) [%] | viability at 10 µM ([2]; 48 h) [%] | viability at 20 µM ([2]; 48 h) [%] | inhibition at 20 µM (primary glial cells) [%] |
| --- | --- | --- | --- | --- | --- | --- | --- | --- | --- | --- | --- | --- | --- | --- | --- | --- | --- | --- |
| C=CCOc1ccc(C/C=C/S(=O)(=O)/C=C/c2ccc(OC(C)=O)c(OC(=O)N(CC=C)CC=C)c2)cc1 [Compound K1-4, 4-{(E)-2-[(E)-3-(4-allyloxyphenyl)prop-1-en-1-yl]sulfonylethenyl}-2-(N,N-diallylcarbamoyloxy)phenyl acetate] | 30.2 ± 4.01 | 53.5 ± 5.52 | 77.4 ± 5.09 | 16.9 ± 1.22 | 76.7 ± 3.17 | 87.1 ± 2.56 | 93.2 ± 1.81 | 30 ± 4 | 13 ± 2 | – | – | – | – | – | – | – | – | – |
| COc1cc(/C=C/S(=O)(=O)Cc2cc(OC)c(OC)c(OC)c2)ccc1OC(=O)N(c1ccccc1)c1ccccc1 [Compound K3-3, (E)-2-methoxy-4-{2-[(3,4,5-trimethoxyphenyl)mesyl]ethenyl}-phenyl-N,N-diphenylcarbamate] | – | 17.6 ± 3.24 | 40.6 ± 3.11 | 38.3 ± 2.79 | 62.5 ± 3.58 | 75.5 ± 2.37 | 88.5 ± 1.73 | 39 ± 3 | 18 ± 1 | 72.5 ± 6.08 | – | – | – | – | – | – | – | – |
| O=C(NC(=O)C(F)(F)F)Oc1ccc(/C=C/S(=O)(=O)C(F)(F)c2ccc(Oc3ccccn3)cc2)cc1OC(=O)C(F)(F)C(F)(F)F [Compound L1-4, (E)-5-{2-[(4-[pyridin-2-yl-oxy]phenyl)difluoromethylsulfonyl]ethenyl}-2-[N-(2,2,2-trifluoroacetyl)carbamoyloxy]phenyl-2,2,3,3,3-pentafluoropropionate] | 26.7 ± 6.93 | 50.9 ± 3.72 | 72.3 ± 4.8 | 9.48 ± 1.34 | 67.5 ± 3.52 | 75.4 ± 2.59 | 86.2 ± 1.86 | 35 ± 2 | 15 ± 2 | – | – | – | – | – | – | – | – | – |
| CCN(C)C(=O)Oc1ccc(/C=C/S(=O)(=O)CC(c2ccc(-c3ccc(OC)c(OC)c3)cc2)[N+](=O)[O-])cc1OC(=O)N(C)CC (stereo not drawn) [Compound M1-1, (E)-4-{2-[2-(3′,4′-dimethoxy-[1,1′-biphenyl]-4-yl)-2-nitroethylsulfonyl]ethenyl}-1,2-phenylenebis(N-ethyl-N-methylcarbamate)] | – | – | – | – | – | – | – | 20 ± 3 | 5 ± 1 | – | 38.3 ± 3.42 | 52.9 ± 5.36 | 82.7 ± 2.47 | 6.6 ± 0.71 | 82.4 ± 2.54 | 89.9 ± 3.67 | 95.1 ± 1.94 | – |
| CN(C)c1ccc(CC(=O)Oc2cc(/C=C/S(=O)(=O)C(Br)c3ccc(Cc4ccc(N(C)C)cc4)cc3)ccc2OC(=O)N2CCCC2C(F)(F)F)cc1 (stereo not drawn) [Compound M1-5] | – | 21.2 ± 3.12 | 45.6 ± 4.28 | 31.3 ± 4.63 | 68.2 ± 4.31 | 78.2 ± 3.76 | 86.9 ± 3.08 | 28 ± 3 | 11 ± 1 | 66.7 ± 4.02 | – | – | – | – | – | – | – | – |
| Cc1ccc(N2CCN(C(=O)Oc3ccc(/C=C/S(=O)(=O)CCCC(c4ccc(OC(=O)CN(C)C)cc4)N(C)C)cc3OC(=O)N(C)c3ccccc3)CC2)cc1 (stereo not drawn) [Compound P1-1, (E)-4-{2-[4-(dimethylamino)-4-(4-(N,N-dimethylglycyloxy)phenyl)butylsulfonyl]ethenyl}-2-(N-methyl-N-phenylcarbamoyloxy)phenyl-4-(p-methylphenyl)piperazine-1-carboxylate] | – | – | – | – | – | – | – | 26 ± 3 | 7 ± 2 | – | 25.9 ± 3.54 | 40 ± 2.66 | 78.4 ± 3.96 | 11.3 ± 1.48 | 75.3 ± 3.12 | 86.6 ± 2.39 | 92.2 ± 3.05 | – |
| COc1ccc(CC(=O)Oc2ccc(C(N)CS(=O)(=O)/C=C/c3ccc(OC(C)(C)C)c(OC(=O)N(C)c4ccccc4)c3)cc2)cc1 (stereo not drawn) [Compound P1-3, (E)-4-{1-amino-2-[4-t-butoxy-3-(N-methyl-N-phenylcarbamoyloxy)styrylsulfonyl]ethyl}phenyl-2-(4-methoxyphenyl)acetate] | – | – | – | – | – | – | – | 31 ± 4 | 16 ± 2 | – | – | 25.8 ± 4.25 | 42 ± 5.34 | 14.4 ± 2.04 | 71 ± 3.56 | 85.2 ± 2.94 | 93.7 ± 3.08 | 58.2 ± 3.66 |
| COc1ccc(CC(=O)Oc2ccc(/C(C)=C/S(=O)(=O)/C=C/c3ccc(OC(=O)N(C)C)c(O[Si](C)(C)CCl)c3)cc2)cc1 [Compound P1-7, 4-{(E)-1-[(E)-3-(chloromethyldimethylsiloxy)-4-(N,N-dimethylcarbamoyloxy)styrylsulfonyl]prop-1-en-2-yl}phenyl-2-(4-methoxyphenyl) acetate] | – | – | – | – | – | – | – | 15 ± 2 | 8 ± 2 | – | – | 21.3 ± 4.43 | 41.2 ± 1.95 | 21.4 ± 2.07 | 79.2 ± 3.72 | 86.6 ± 2.93 | 91.2 ± 2.08 | 71 ± 3.67 |
